Non-standard residues stand in square brackets, D forms with d. Residues, ends and D or L forms follow the SMILES beside them. ξ: configuration not given here. *: point of attachment. ξF = NC(Cc1ccccc1)C(=O)O; Cbz = O=C(OCc1ccccc1)*
molecular target: T1, Solute carrier family 12 member 5 (Homo sapiens, UniProt Q9H2X9); experiment: concentration-response of KCC2 transport modulators – cell-based, HEK293 KCC2, FluoZin-2 fluorescence, dose response (AID 1736); settings: not given
T1 sequence (Q9H2X9 whole entry): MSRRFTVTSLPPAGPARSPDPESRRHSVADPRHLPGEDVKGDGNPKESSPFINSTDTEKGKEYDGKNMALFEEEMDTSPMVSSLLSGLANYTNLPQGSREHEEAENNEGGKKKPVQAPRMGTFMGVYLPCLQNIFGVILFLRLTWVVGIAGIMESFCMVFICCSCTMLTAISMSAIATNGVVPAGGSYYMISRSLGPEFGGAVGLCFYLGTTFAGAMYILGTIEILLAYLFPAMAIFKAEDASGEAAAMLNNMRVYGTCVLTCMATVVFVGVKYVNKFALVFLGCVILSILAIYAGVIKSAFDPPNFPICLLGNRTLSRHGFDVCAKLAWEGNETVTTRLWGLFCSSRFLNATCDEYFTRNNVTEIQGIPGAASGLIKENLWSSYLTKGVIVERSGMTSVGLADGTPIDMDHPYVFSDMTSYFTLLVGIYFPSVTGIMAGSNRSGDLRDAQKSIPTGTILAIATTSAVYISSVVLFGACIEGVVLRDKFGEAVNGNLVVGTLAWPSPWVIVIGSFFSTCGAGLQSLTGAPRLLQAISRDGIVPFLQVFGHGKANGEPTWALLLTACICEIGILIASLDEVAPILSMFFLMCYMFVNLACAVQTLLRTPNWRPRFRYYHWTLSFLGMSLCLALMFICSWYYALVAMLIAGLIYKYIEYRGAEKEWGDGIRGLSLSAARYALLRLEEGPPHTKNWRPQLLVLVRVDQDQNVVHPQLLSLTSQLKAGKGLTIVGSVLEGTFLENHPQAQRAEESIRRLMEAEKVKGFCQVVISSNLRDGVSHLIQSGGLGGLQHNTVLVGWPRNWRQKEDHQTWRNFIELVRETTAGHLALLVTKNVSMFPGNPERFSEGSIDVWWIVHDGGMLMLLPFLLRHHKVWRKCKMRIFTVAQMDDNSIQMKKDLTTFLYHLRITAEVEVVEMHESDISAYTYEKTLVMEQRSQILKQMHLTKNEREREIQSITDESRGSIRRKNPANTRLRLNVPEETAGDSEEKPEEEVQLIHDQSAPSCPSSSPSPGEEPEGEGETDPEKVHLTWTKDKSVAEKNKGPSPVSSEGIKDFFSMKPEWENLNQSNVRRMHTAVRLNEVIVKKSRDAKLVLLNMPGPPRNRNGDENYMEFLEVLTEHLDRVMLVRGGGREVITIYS

Compound	EC50 [µM]
COc1ccc(S(=O)(=O)N(CCc2ccccc2)CC(=O)O)cc1Cl [2-[(3-chloranyl-4-methoxy-phenyl)sulfonyl-(2-phenylethyl)amino]ethanoic acid]	3.8
CCOc1cc(Br)ccc1S(=O)(=O)NCc1ccccc1 [4-bromanyl-2-ethoxy-N-(phenylmethyl)benzenesulfonamide]	1.36
CC(C)(C)NC(=O)C(c1ccncc1)N(Cc1ccco1)C(=O)c1ccc(-c2ccccc2)[nH]1 (centres undefined) [N-[2-(tert-butylamino)-2-oxo-1-pyridin-4-ylethyl]-N-(furan-2-ylmethyl)-5-phenyl-1H-pyrrole-2-carboxamide]	26.6
O=C(O)/C=C/c1cn(Cc2ccccc2Cl)nc1-c1ccccc1 [(E)-3-[1-(2-chlorobenzyl)-3-phenyl-pyrazol-4-yl]acrylic acid]	2.04
CCn1nnnc1SCC(=O)Nc1nc(-c2cccs2)cs1 [2-(1-Ethyl-1H-tetrazol-5-ylsulfanyl)-N-(4-thiophen-2-yl-thiazol-2-yl)-acetamide]	1.97
COc1cc(C=NNC(=O)CN(Cc2ccccc2)S(=O)(=O)c2ccc3c(c2)OCCO3)ccc1O [2,3-Dihydro-benzo[1,4]dioxine-6-sulfonic acid benzyl-(4-hydroxy-3-methoxy-benzylidene-hydrazinocarbonylmethyl)-amide]	3.15
N#Cc1c(NC(=O)CSc2nc(N)cc(=O)[nH]2)sc2c1CCCCCC2 [2-[(6-amino-4-oxo-1H-pyrimidin-2-yl)sulfanyl]-N-(3-cyano-4,5,6,7,8,9-hexahydrocycloocta[b]thiophen-2-yl)acetamide]	0.461
CCOC(=O)CNC(=O)C(Cc1ccccc1)NC(=O)OCc1ccccc1 (centres undefined) [2-[[1-oxo-3-phenyl-2-(phenylmethoxycarbonylamino)propyl]amino]acetic acid ethyl ester] (Cbz-[ξF]-Gly-OEt)	5.03
Sc1nnc(Cc2c[nH]c3ccccc23)o1 [5-(1H-indol-3-ylmethyl)-1,3,4-oxadiazole-2(3H)-thione]	3.76
O=C(NCc1cccs1)c1nc2c(nnn2Cc2ccc(F)cc2)c(=O)[nH]1 [MLS000074753]	9.9
Sc1nnc(CNc2cccc(Cl)c2)o1 [5-[(3-chloroanilino)methyl]-3H-1,3,4-oxadiazole-2-thione]	1.49
COc1cc(C(=S)N2CCOCC2)ccc1OC(=O)Cc1ccc(F)cc1 [(2-methoxy-4-morpholin-4-ylcarbothioyl-phenyl) 2-(4-fluorophenyl)ethanoate]	137
CN1C(=O)/C(=C/c2ccccc2OCc2ccccc2)NC1=S [(5Z)-3-methyl-5-[(2-phenylmethoxyphenyl)methylidene]-2-sulfanylidene-4-imidazolidinone]	7.64
CC(=O)NCCC(=O)N1CCCC(CNC(=O)c2ccc(-c3ccccc3)cc2)C1 (centres undefined) [MLS000733794]	8.13
Cc1nn(-c2ccc(F)cc2)c(C)c1NS(=O)(=O)c1ccc2ccccc2c1 [MLS000565745]	1.99
O=C(NNc1nc(-c2ccccc2)cs1)c1ccccc1 [MLS000547345]	0.0295
O=C(CSc1ccc(-c2ccccc2)nn1)c1ccccc1 [1-phenyl-2-(6-phenylpyridazin-3-yl)sulfanyl-ethanone]	0.862
CN(C)S(=O)(=O)c1cccc(NC(=O)c2cc3c(cc2Cl)N2CCCCC=C2NS3(=O)=O)c1 [2-chloranyl-N-[3-(dimethylsulfamoyl)phenyl]-5,5-bis(oxidanylidene)-8,9,10,11-tetrahydro-7H-azepino[2,1-c][1,2,4]benzothiadiazine-3-carboxamide]	0.0676
O=C(/C=C/c1ccco1)N1CCC(Cc2ccccc2)CC1 [(E)-1-(4-benzylpiperidin-1-yl)-3-(furan-2-yl)prop-2-en-1-one]	2.93
O=C(NC(=S)Nc1nc(-c2cccc([N+](=O)[O-])c2)cs1)c1ccccc1Cl [2-chloranyl-N-[[4-(3-nitrophenyl)-1,3-thiazol-2-yl]carbamothioyl]benzamide]	6.81
O=C(Nc1cccnc1)c1ccc(COc2cc(Cl)ccc2Cl)o1 [5-[(2,5-dichlorophenoxy)methyl]-N-(3-pyridinyl)-2-furancarboxamide]	106
Cc1ccc(S(=O)(=O)N(CCC(=O)O)Cc2ccc(Cl)cc2)cc1 [3-[(4-chlorobenzyl)-tosyl-amino]propionic acid]	0.356
Sc1nnc(CCc2ccc(Cl)cc2)o1 [5-[2-(4-chlorophenyl)ethyl]-1,3,4-oxadiazole-2-thiol]	2.47
O=S(=O)(NCc1ccccc1)c1ccc(Cl)c(S(=O)(=O)NCc2ccccc2)c1 [1-N,3-N-dibenzyl-4-chlorobenzene-1,3-disulfonamide]	2.11
C=CCNc1oc(Cc2cccc3ccccc23)nc1C#N [2-(1-naphthalenylmethyl)-5-(prop-2-enylamino)-4-oxazolecarbonitrile]	12.1
Cc1nc2cc(C(F)(F)F)ccc2n1C1CCN(Cc2nnnn2Cc2ccc3c(c2)OCO3)CC1 [1-[1-(1-Benzo[1,3]dioxol-5-ylmethyl-1H-tetrazol-5-ylmethyl)-piperidin-4-yl]-2-methyl-5-trifluoromethyl-1H-benzoimidazole]	16.4
NC1=NC[C@@H](Cc2ccc(O)cc2)N1CCc1cc(C(F)(F)F)cc(C(F)(F)F)c1	7.94

More lines, now with the values ahead:

EC50 [µM]	Compound
2.75	CC(C)CCNC(=O)COC(=O)/C=C/c1ccc2ccccc2n1 [(E)-3-(2-quinolinyl)-2-propenoic acid [2-(3-methylbutylamino)-2-oxoethyl] ester]
10.9	Cn1nccc1C(=O)OCC(=O)Nc1nc(-c2ccccc2)cs1 [2-Methyl-2H-pyrazole-3-carboxylic acid (4-phenyl-thiazol-2-ylcarbamoyl)-methyl ester]
0.599	O=C(OCC(=O)N1CCN(C(=O)c2ccco2)CC1)c1sc2ccccc2c1Cl [3-chloro-1-benzothiophene-2-carboxylic acid [2-[4-[2-furanyl(oxo)methyl]-1-piperazinyl]-2-oxoethyl] ester]
0.556	O=C(c1ccc(N2CCCCCC2)c([N+](=O)[O-])c1)N1CCc2ccccc21 [1-(4-azepan-1-yl-3-nitrobenzoyl)indoline]
3.52	COc1ccc(S(=O)(=O)N(C)CC(=O)N2CCN(Cc3ccccc3)CC2)cc1C [4-methoxy-N,3-dimethyl-N-[2-oxidanylidene-2-[4-(phenylmethyl)piperazin-1-yl]ethyl]benzenesulfonamide]
32.7	O=C(NN=Cc1ccc(Cl)s1)C1COc2ccccc2O1 (centres undefined) [2,3-Dihydro-benzo[1,4]dioxine-2-carboxylic acid [1-(5-chloro-thiophen-2-yl)-meth-(Z)-ylidene]-hydrazide]
70.5	COc1ccc(NC(=S)NC(N)=Nc2nc(C)c3ccccc3n2)cc1 [(1E)-1-[amino-[(4-methyl-2-quinazolinyl)amino]methylidene]-3-(4-methoxyphenyl)thiourea]
4.59	N#Cc1nc(-c2ccco2)oc1N1CCN(Cc2ccccc2)CC1 [2-(2-furanyl)-5-[4-(phenylmethyl)-1-piperazinyl]-4-oxazolecarbonitrile]
242	COc1ccc(OC)c(-n2nnnc2SCC(=O)NCCc2ccccc2)c1 [2-[1-(2,5-Dimethoxy-phenyl)-1H-tetrazol-5-ylsulfanyl]-N-phenethyl-acetamide]
7.95	Cc1ccc(C(=O)CC=Nc2ccccc2C(N)=O)cc1 [2-[[(E)-3-(4-methylphenyl)-3-oxidanylidene-prop-1-enyl]amino]benzamide]
3.19	O=S1(=O)N=C(N2CCN(Cc3ccccc3)CC2)c2ccccc21 [3-(4-Benzyl-piperazin-1-yl)-benzo[d]isothiazole 1,1-dioxide]

same assay, conditions: inactive by the depositor's call

Compound	EC50 [µM]
CCOC(=O)c1c(C)[nH]c(C)c1C(=O)CSc1nc(N)cc(N)n1 [SMR000063952]	1.88
Cc1ccc(C=Nn2c(-c3ccc(Cl)cc3)n[nH]c2=S)s1 [3-(4-chlorophenyl)-4-[(5-methyl-2-thiophenyl)methylideneamino]-1H-1,2,4-triazole-5-thione]	188

Next, values leading:

EC50 [µM]	Compound
170	CN1C(=CC(=O)C2CCC2)Sc2ccccc21 [(2Z)-1-cyclobutyl-2-(3-methyl-1,3-benzothiazol-2-ylidene)ethanone]
21.5	CSc1ccc(NC(=O)NCCN2CCc3ccccc3C2)cc1 [1-[2-(3,4-dihydro-1H-isoquinolin-2-yl)ethyl]-3-(4-methylsulfanylphenyl)urea]
9.05	CCC(C)(C)n1nnnc1C(c1ccc(O)c(OC)c1)N1CCN(c2nc3ccccc3s2)CC1 (centres undefined) [4-[(1-tert-amyltetrazol-5-yl)-[4-(1,3-benzothiazol-2-yl)piperazino]methyl]-2-methoxy-phenol]
120	CC(C(=O)N=c1sc2ccccc2n1C)N1C(=O)C2CC=CCC2C1=O (centres undefined)

From BindingDB's records for doi:10.7270/Q2Q52N1X (Vanderbilt Screening Center for GPCRs, Ion Channels and …, 2009)
